# Assay results as given in patent US20240301319A1, “PERFUMING COMPOSITIONS” (FIRMNICH SA, priority 2017, published 2024).
# What was measured:
# [1] = Volatility of perfuming compounds (Tables 4 to 10), with top/middle/bottom note type; assay type: physicochemical
# Experimental: In some aspects, the first perfume accord comprises perfuming compounds having a volatility ranging from 70,000 to 100 μg/l in air. In some aspects, perfuming compounds having a volatility ranging from 70,000 to 100 μg/l in air are referred to as “top notes”.
# In some aspects, the second perfume accord comprises perfuming compounds having a volatility ranging from 99 to 50 μg/l in air. In some aspects, perfuming compounds having a volatility ranging from 99 to 50 μg/l in air are referred to as “middle notes”.
# In some aspects, the third perfume accord comprises perfuming compounds having a volatility ranging from 49 to 0.1 μg/l in air. In some aspects, perfuming compounds having a volatility ranging from 49 to 0.1 μg/l in air are referred to as “bottom notes”.
# Tables 4 to 10 describe top, middle and bottom note perfuming compounds for watery, green, fruity, citrus, sweet, gourmand and woody notes respectively.
# [2] = Odor threshold and odor value of perfuming compounds (Tables 4 to 10)
# [3] = Table 6, perfuming compounds having a fruity note
# [4] = Table 6, perfuming compounds having a fruity note, note type by volatility
# [5] = Table 8, perfuming compounds having a sweet note
# [6] = Table 8, perfuming compounds having a sweet note, note type by volatility
# [7] = Table 7, citrus note, top, middle or bottom note
# [8] = note type (Top/Middle/Bottom) by volatility, perfuming compounds having a green note
# [9] = perfuming compounds having a green note
Molecule,"Volatility [1, 3] [μg/l air]","Type [1, 4]",other results
CCC(=O)CC(C)CC (centres unmarked) [5-METHYL-3-HEPTANONE],14141.42,"TOP (perfuming compounds having a volatility ranging from 70,000 to 100 μg/l in air are referred to as “top notes”)",
CCOC(=O)Cc1ccccc1 [ETHYL PHENYLACETATE],269.77,"TOP (perfuming compounds having a volatility ranging from 70,000 to 100 μg/l in air are referred to as “top notes”)",
CCOc1cc(C=O)ccc1O [3-ethoxy-4-hydroxybenzaldehyde],,,"Volatility [1, 5]: 0.11 μg/l air; Type [1, 6]: Bottom"
"CC(=O)OCCC(C)CC(C)(C)C (centres unmarked) [3,5,5-TRIMETHYLHEXYL ACETATE]",1461.80,"TOP (perfuming compounds having a volatility ranging from 70,000 to 100 μg/l in air are referred to as “top notes”)",
Cc1ccc(OC(=O)C(C)C)cc1 [4-METHYLPHENYL ISOBUTYRATE],167.81,"TOP (perfuming compounds having a volatility ranging from 70,000 to 100 μg/l in air are referred to as “top notes”)",
CCCCCCC(=O)OCC [ethyl heptanoate],3052.89,"TOP (perfuming compounds having a volatility ranging from 70,000 to 100 μg/l in air are referred to as “top notes”)",
CCOC(=O)C(C)C [ETHYL ISOBUTYRATE],132964.09,"TOP (perfuming compounds having a volatility ranging from 70,000 to 100 μg/l in air are referred to as “top notes”)",
CCCCCC(=O)CC [3-OCTANONE],6787.60,"TOP (perfuming compounds having a volatility ranging from 70,000 to 100 μg/l in air are referred to as “top notes”)",
COC(=O)C=C1CCCC1 [methyl cyclopentylideneacetate],1091.46,"TOP (perfuming compounds having a volatility ranging from 70,000 to 100 μg/l in air are referred to as “top notes”)",
CCCCCC(C)=O [2-HEPTANONE],26409.73,"TOP (perfuming compounds having a volatility ranging from 70,000 to 100 μg/l in air are referred to as “top notes”)",
"(+−)-(3E)-3-methyl-4-(2,6,6-trimethyl-2-cyclohexen-1-yl)-3-buten-2-one (A) + (+−)-(1E)-1-(2,6,6-trimethyl-2-cyclohexen-1-yl)-1-penten-3-one (B)",,,"Type [1, 7]: Bottom"
CC/C=C\C[C@H]1C(=O)CC[C@@H]1CC(=O)OC (racemic),1.59,Bottom,
"CC(=O)OC(C)(C)Cc1ccccc1 [1,1-DIMETHYL-2-PHENYLETHYL ACETATE]",198.02,"TOP (perfuming compounds having a volatility ranging from 70,000 to 100 μg/l in air are referred to as “top notes”)",
CC(C)=CCCC(C)=CCO,,,"Type [1, 7]: Middle"
O=Cc1ccccc1 [BENZALDEHYDE],,,"Volatility [1, 5]: 8207.00 μg/l air; Type [1, 6]: Top; Type [1, 8]: Top; Volatility (μg/l air) [1, 9]: 8207.00 μg/l air"
COc1ccc2ccccc2c1 [2-METHOXYNAPHTHALENE],,,"Odor Threshold [2, 5]: 1.02E−05 μg/l air; Odor Value [2, 5]: 5.00E+06; Odor Threshold ([2]; Table 9, gourmand note): 1.02E−05 μg/l air"
C=CC(=C)CCC=C(C)C,15094.56,"TOP (perfuming compounds having a volatility ranging from 70,000 to 100 μg/l in air are referred to as “top notes”)",
CCCCCCC(C)=O [2-OCTANONE],6639.71,"TOP (perfuming compounds having a volatility ranging from 70,000 to 100 μg/l in air are referred to as “top notes”)",

Molecule,"Volatility [1, 3] [μg/l air]","Type [1, 4]",other results
CC(=O)OCc1ccccc1 [benzyl acetate],507.38,"TOP (perfuming compounds having a volatility ranging from 70,000 to 100 μg/l in air are referred to as “top notes”)",
CC(C)=CCC/C(C)=C/CO,,,"Volatility (μg/l air) ([1]; Table 7, citrus note): 89.88 μg/l air; Type [1, 7]: Middle"
CC1CCC(=O)O1 (racemic) [(+−)-4-PENTANOLIDE],2355.15,"TOP (perfuming compounds having a volatility ranging from 70,000 to 100 μg/l in air are referred to as “top notes”)","Volatility (μg/l air) ([1]; Table 7, citrus note): 2355.15 μg/l air; Type [1, 7]: Top"
CCCCCC1(C)CCC(C)(C)C1=O (racemic),265.42,"TOP (perfuming compounds having a volatility ranging from 70,000 to 100 μg/l in air are referred to as “top notes”)",
CCOC(=O)c1ccccc1 [ETHYL BENZOATE],1285.12,"TOP (perfuming compounds having a volatility ranging from 70,000 to 100 μg/l in air are referred to as “top notes”)",
CC1(C)CCC[C@]2(C)[C@H]3CCO[C@]3(C)CC[C@@H]12,,,"Type ([1]; Table 10, perfuming compounds having a woody note, note type by volatility): Bottom"
C/C=C(\C)C(=O)OCC/C=C\CC,,,"Type [1, 8]: Top; Volatility (μg/l air) [1, 9]: 168.78 μg/l air"
"CCOC(=O)/C(C)=C/C(C)C [ethyl (2E)-2,4-dimethyl-2-pentenoate]",1618.37,"TOP (perfuming compounds having a volatility ranging from 70,000 to 100 μg/l in air are referred to as “top notes”)",
"CC1(C)C2CC[C@@]1(C)C(=O)C2 (single isomer, unassigned; (+))",555.04,"TOP (perfuming compounds having a volatility ranging from 70,000 to 100 μg/l in air are referred to as “top notes”)",
"CC(C)(C)Cc1cccnc1 [3-(2,2-DIMETHYLPROPYL)PYRIDINE]",516.21,"TOP (perfuming compounds having a volatility ranging from 70,000 to 100 μg/l in air are referred to as “top notes”)",
CCCOC(=O)[C@H](C)OC(C)(C)CC,995.16,"TOP (perfuming compounds having a volatility ranging from 70,000 to 100 μg/l in air are referred to as “top notes”)",
CC(C)=CCC/C(C)=C\CO,,,"Volatility (μg/l air) ([1]; Table 7, citrus note): 86.02 μg/l air; Type [1, 7]: Middle"
CC/C=C\CCCCCO [(Z)-6-NONEN-1-OL],,,"Volatility (μg/l air) ([1]; Table 4, watery note): 6.91 μg/l air; Type ([1]; Table 4, watery note, top, middle or bottom note): bottom (perfuming compounds having a volatility ranging from 49 to 0.1 μg/l in air are referred to as “bottom notes”); Type [1, 8]: Bottom; Volatility (μg/l air) [1, 9]: 6.91 μg/l air"
CCCc1ccc(OC)cc1 [1-METHOXY-4-PROPYLBENZENE],629.29,"TOP (perfuming compounds having a volatility ranging from 70,000 to 100 μg/l in air are referred to as “top notes”)",
C=CCOC(=O)CCCCC [ALLYL HEXANOATE],941.49,"TOP (perfuming compounds having a volatility ranging from 70,000 to 100 μg/l in air are referred to as “top notes”)",
C=C1CCCC(C)(C)C1C(=O)OC (racemic),1089.25,"TOP (perfuming compounds having a volatility ranging from 70,000 to 100 μg/l in air are referred to as “top notes”)",
CCOC(=O)C1=C(C)C=CCC1(C)C,368.81,"TOP (perfuming compounds having a volatility ranging from 70,000 to 100 μg/l in air are referred to as “top notes”)",
CCCCCCC1CCCC(=O)O1 (centres unmarked) [6-hexyltetrahydro-2H-pyran-2-one],4.64,Bottom,"Volatility [1, 5]: 4.64 μg/l air; Type [1, 6]: Bottom; Volatility ([1]; Table 9, gourmand note): 4.64 μg/l air; Type ([1]; Table 9, perfuming compounds having a gourmand note, note type by volatility): Bottom"
